Laboratory results from patent US20210113492A1, “METHOD FOR INHIBITING PROLIFERATION AND METASTASIS OF CANCER CELLS BY USING NAPHTHOQUINONE DERIVATIVE” (National Tsing Hua University, priority 2019, published 2021).

Legend:
[1] = test system: oral squamous cell carcinoma cells (OC3-IV2); test: Boyden chamber invasion assay, OC3-IV2; assay type: cell-based, human; details: 5, 7.5 and 10 μM, 24 h, dose dependency (FIG. 2A)
Procedure: Cells were harvested by […] and resuspended in a serum-free medium with 0.1% BSA. Then, […] of cell suspension (2×10^5 cells) was seeded into the upper insert of SPLInsert with Polyethylene terephthalate (PET) membrane (pore size: 8.0 μm) (SPL Lifesciences, Korea) pre-coated with matrigel (BD Biosciences, San Jose, Calif.). The bottom well of 24-well plate of SPLInsert was filled with cell medium containing 10% FBS with different concentrations of isoplumbagin (5, 7.5 and 10 μM, Experimental group of oral squamous cell carcinoma cells (OC3-IV2); 2.5, 5 and 10 μM, Experimental groups of human primary glioblastoma cells (U87), human non-small cell lung carcinoma cells (H1299), human prostate cancer cells (PC3) and human cervical cancer cells (Hela)) or without isoplumbagin (DMSO added). […] Number of cells was counted using Image J. Relative invasion ability was calculated as cell number per area.
FIGS. 2A-2E show the inhibitory effect of different doses of isoplumbagin on invasion for oral squamous cell carcinoma cells (OC3-IV2), human primary glioblastoma cells (U87), human non-small cell lung carcinoma cells (H1299), prostate cancer cells (PC3) and cervical cancer cells (Hela) assessed with the Boyden chamber assays. *Compared with solvent control (DMSO). […]

[2] = test system: human non-small cell lung carcinoma cells (H1299); test: Mitochondrial morphology and distribution by immunofluorescence staining, H1299; assay type: cell-based; details: 1 μM or 2.5 μM, 24 hours, anti-TOM20 staining
Procedure: The effects of isoplumbagin on mitochondrial morphology and distribution of OC3-IV2, U87, H1299 and PC3 cell lines were measured by immunofluorescence staining After OC3-IV2, U87, H1299, and PC3 cells were treated with DMSO, 1 μM, or 2.5 μM isoplumbagin for 24 hours, cells were fixed by 4% (v/v) paraformaldehyde and permeabilized by 0.1% (v/v) Triton X-100. Cells were incubated in blocking buffer containing 1% bovine serum albumin. After blocking, cells were incubated overnight with indicated primary antibodies against TOM20 (a mitochondria marker, sc-11415, Santa Cruz), and then incubated with Alexa Fluor 488-conjugated secondary antibodies (A11001, Invitrogen). Nucleus was stained with DAPI, actin was stained with rhodamine phalloidin (A12379, Invitrogen) and cells were mounted using Prolong Gold reagent (P36930, Invitrogen). 63 images were taken by LSM800 confocal microscopes (Zeiss).
FIGS. 5A-5D show the effect of isoplumbagin on mitochondrial morphogenesis and distribution of oral squamous cell carcinoma cells (OC3-IV2), human primary glioblastoma cells (U87), human non-small cell lung carcinoma cells (H1299) and human prostate cancer cells (PC3). Cells treated with either solvent control (DMSO) or isoplumbagin were determined by immunofluorescence staining using anti-TOM20 (mitochondria, green) antibody, rhodamine phalloidin (actin, red) and DAPI (nucleus, blue). […]

[3] = test system: OC3-IV2 cells; test: Oral orthotopic OC3-IV2 xenograft mice model; assay type: in vivo, CB17/lcr-Prkdc^scid/CrlNarl mice; details: 2 mg/kg intraperitoneal once every 3 days, day 0-18
Procedure: In this example, the anti-tumor effect of isoplumbagin in xenograft mice model was explored. In oral orthotopic xenograft CB17/lcr-Prkdc^scid/CrlNarl mice model, 1×10^6 OC3-IV2 cells were harvested and re-suspended in 100 μl PBS. The cells were injected through the oral buccal mucosa into six-week-old male CB17/lcr-Prkdc^scid/CrlNarl mice (National Laboratory Animal Center, Taiwan). When the tumor size in oral buccal reached approximately 25 mm^3 at 14 days after inoculation of the OC3-IV2 cells, mice were randomly assigned into two groups (n=3 per group): vehicle (DMSO) control group and 2 mg/kg isoplumbagin group. Treatments were given via intraperitoneal injection once every 3 days in the morning for 2 weeks. During this period, mice weights and tumor volumes (length×width^2/2) were recorded every 3 days. At the end of the study (on day 18), the mice were sacrificed by carbon dioxide asphyxiation. […]
FIGS. 7A-7D show the anti-tumor effect of isoplumbagin in xenograft mice model. […] Tumor volume (FIG. 7A) and body weight (FIG. 7B) were measured from day 0-18 after treatment. […]

With CC1=CC(=O)c2cccc(O)c2C1=O [isoplumbagin, 5-hydroxy-3-methyl-1,4-naphthoquinone] the “cancer cells migrating through the membrane (invasion)” value [1] was “decrease significantly”, the “mitochondrial morphogenesis and distribution” value [2] was “can alter the mitochondrial morphogenesis and distribution” and the “tumor growth (tumor volume, tumor weight)” value [3] was “can effectively inhibit tumor growth”.
